In patent publication US11208412B2 (DAEGU-GYEONGBUK MEDICAL INNOVATION FOUNDATION, priority 2017, dated 2021) one finds remaining binding data, which are given here for 3 compounds.

What all share (assay): Kinase selectivity, DiscoverX scanMAX Kinase assay panel (% control)
Common to all, as to format: binding

Assay [1] addresses T1, kinases of the scanMAX Kinase assay panel (Homo sapiens, UniProt Q8NEB9).
T1 construct: purchased DiscoverX Co. (contract measurement) scanMAX Kinase assay panel
The conditions noted are these: kinase VPS34; 1 uM in DMSO. A digest of the protocol:
(§1)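 A 1 uM DMSO solution of compound was applied across the panel kinases, and results were expressed as % control relative to DMSO (100%) and a positive control (0%).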

Assay [2] has as its target T2, kinases of the scanMAX Kinase assay panel (Homo sapiens, UniProt O14936).
T2 construct: purchased DiscoverX Co. (contract measurement) scanMAX Kinase assay panel
T2 sequence (O14936 1-926): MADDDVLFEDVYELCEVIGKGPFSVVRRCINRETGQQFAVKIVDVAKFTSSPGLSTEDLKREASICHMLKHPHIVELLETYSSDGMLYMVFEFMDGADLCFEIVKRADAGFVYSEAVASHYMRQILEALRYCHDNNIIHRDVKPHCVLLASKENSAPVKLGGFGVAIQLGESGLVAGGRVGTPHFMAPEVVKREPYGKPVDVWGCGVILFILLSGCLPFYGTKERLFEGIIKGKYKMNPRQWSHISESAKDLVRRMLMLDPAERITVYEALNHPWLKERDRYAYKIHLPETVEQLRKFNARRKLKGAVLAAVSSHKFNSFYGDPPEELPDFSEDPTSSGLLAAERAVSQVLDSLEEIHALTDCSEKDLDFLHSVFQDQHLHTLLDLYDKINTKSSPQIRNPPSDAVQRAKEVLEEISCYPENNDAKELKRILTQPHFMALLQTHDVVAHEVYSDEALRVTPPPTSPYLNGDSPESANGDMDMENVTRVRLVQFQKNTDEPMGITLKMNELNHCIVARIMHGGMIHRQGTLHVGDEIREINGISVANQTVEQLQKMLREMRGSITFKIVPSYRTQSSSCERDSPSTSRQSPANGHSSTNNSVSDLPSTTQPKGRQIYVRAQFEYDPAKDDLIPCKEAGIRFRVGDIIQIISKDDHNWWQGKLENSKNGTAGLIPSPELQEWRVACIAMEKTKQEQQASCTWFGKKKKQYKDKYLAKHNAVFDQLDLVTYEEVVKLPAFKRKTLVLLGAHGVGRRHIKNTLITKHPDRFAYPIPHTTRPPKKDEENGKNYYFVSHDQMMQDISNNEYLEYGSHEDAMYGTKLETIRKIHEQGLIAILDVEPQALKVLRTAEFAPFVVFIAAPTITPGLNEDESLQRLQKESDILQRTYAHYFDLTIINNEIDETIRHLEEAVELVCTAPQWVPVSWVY
The conditions noted are these: CASK; 1 uM. An outline of the steps: as §1

In assay [3] the target is T3, kinases of the scanMAX Kinase assay panel (Homo sapiens, UniProt P42680).
T3 construct: purchased DiscoverX Co. (contract measurement) scanMAX Kinase assay panel
T3 sequence (P42680 1-631): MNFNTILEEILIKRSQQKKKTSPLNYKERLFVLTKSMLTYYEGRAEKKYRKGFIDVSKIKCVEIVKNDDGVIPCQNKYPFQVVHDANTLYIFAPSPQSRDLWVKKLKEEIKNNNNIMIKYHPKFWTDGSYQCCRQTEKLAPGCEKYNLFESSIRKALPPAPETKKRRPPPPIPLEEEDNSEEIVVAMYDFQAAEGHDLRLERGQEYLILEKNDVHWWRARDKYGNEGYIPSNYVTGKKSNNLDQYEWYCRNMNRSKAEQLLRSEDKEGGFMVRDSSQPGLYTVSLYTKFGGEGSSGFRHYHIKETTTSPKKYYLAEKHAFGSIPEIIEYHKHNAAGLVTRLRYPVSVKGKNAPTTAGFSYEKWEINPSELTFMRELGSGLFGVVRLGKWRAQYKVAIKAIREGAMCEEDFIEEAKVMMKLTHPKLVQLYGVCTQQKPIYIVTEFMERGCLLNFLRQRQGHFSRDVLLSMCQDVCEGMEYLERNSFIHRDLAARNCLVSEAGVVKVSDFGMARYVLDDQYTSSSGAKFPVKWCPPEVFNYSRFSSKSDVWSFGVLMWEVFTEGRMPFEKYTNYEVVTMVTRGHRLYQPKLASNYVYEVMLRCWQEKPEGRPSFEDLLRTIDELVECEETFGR
Conditions: kinase TEC; 1 uM in DMSO. An outline of the steps: as §1

For assay [4], the target named is T4, kinases of the scanMAX Kinase assay panel (Homo sapiens, UniProt P00519, Q252H).
T4 construct: purchased DiscoverX Co. (contract measurement) scanMAX Kinase assay panel
The conditions noted are these: 1 uM. An outline of the steps:
as §1

The target of assay [5] is T5, kinases of the scanMAX Kinase assay panel (Homo sapiens, UniProt O43293).
T5 construct: purchased DiscoverX Co. (contract measurement) scanMAX Kinase assay panel
Conditions: DAPK3; 1 uM. An outline of the steps:
as §1

In assay [6] the target is T6, kinases of the scanMAX Kinase assay panel (Homo sapiens, UniProt Q08881).
T6 construct: purchased DiscoverX Co. (contract measurement) scanMAX Kinase assay panel
T6 sequence (Q08881 1-620): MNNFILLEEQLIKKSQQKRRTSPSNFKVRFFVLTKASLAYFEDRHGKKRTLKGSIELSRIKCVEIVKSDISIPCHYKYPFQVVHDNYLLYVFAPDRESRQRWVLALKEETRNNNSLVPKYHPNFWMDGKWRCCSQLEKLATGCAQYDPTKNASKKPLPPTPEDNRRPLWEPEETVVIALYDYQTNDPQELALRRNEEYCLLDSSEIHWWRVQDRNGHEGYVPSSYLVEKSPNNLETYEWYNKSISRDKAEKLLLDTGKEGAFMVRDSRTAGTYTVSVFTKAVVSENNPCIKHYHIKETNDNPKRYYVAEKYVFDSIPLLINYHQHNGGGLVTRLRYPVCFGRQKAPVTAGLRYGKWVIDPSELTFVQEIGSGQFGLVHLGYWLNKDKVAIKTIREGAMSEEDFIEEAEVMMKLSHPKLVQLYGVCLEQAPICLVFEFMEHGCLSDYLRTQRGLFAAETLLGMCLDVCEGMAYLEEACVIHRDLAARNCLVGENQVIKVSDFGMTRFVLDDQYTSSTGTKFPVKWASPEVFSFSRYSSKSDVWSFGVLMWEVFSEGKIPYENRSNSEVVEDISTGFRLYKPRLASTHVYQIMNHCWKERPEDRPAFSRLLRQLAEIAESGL
The conditions noted are these: ITK; 1 uM. A digest of the protocol:
as §1

Assay [7] concerns the target T7, kinases of the scanMAX Kinase assay panel (Homo sapiens, UniProt P07949).
T7 construct: purchased DiscoverX Co. (contract measurement) scanMAX Kinase assay panel
The conditions noted are these: kinase RET; 1 uM in DMSO. An outline of the steps:
as §1

T5 sequence (O43293 whole entry): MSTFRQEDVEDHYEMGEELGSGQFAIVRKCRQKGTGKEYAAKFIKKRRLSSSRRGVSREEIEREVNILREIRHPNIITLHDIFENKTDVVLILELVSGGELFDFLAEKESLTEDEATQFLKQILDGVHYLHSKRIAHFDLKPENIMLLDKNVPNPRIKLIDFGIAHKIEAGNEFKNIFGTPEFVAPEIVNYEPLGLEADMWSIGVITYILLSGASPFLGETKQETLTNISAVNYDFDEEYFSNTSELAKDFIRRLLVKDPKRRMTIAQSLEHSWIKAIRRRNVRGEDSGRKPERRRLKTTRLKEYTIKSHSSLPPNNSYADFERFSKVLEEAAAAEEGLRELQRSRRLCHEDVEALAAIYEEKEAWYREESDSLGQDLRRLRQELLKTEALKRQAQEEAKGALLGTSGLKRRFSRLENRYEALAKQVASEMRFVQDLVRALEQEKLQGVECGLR
T7 sequence (P07949 29-1114): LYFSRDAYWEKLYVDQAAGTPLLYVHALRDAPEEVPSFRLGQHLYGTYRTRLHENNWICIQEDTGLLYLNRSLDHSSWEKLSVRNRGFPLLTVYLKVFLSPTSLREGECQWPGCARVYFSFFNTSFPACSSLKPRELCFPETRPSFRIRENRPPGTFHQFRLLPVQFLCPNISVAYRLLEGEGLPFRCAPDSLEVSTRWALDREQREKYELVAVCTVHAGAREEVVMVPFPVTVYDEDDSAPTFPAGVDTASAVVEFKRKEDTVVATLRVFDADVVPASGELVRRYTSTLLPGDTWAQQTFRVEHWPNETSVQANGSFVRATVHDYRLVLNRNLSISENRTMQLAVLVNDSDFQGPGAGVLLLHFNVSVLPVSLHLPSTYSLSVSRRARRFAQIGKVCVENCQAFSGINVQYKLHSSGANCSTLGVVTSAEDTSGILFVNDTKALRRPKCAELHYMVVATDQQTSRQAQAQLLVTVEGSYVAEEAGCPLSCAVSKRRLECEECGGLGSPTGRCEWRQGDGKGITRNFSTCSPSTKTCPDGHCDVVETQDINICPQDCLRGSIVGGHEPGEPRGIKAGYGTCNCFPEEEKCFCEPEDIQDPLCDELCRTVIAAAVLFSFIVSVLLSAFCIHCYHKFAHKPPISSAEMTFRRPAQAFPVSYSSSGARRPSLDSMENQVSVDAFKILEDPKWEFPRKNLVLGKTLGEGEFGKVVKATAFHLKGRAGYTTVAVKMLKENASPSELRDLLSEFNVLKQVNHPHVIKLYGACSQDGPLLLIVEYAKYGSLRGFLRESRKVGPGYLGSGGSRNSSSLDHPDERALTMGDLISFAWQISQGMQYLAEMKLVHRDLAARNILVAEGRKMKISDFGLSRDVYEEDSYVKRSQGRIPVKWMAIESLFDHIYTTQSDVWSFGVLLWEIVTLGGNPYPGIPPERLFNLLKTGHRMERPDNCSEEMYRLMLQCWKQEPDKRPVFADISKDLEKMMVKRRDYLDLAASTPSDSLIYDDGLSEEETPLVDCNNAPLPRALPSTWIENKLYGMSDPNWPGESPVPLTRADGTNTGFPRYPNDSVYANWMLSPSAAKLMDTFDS
T1 sequence (Q8NEB9 whole entry): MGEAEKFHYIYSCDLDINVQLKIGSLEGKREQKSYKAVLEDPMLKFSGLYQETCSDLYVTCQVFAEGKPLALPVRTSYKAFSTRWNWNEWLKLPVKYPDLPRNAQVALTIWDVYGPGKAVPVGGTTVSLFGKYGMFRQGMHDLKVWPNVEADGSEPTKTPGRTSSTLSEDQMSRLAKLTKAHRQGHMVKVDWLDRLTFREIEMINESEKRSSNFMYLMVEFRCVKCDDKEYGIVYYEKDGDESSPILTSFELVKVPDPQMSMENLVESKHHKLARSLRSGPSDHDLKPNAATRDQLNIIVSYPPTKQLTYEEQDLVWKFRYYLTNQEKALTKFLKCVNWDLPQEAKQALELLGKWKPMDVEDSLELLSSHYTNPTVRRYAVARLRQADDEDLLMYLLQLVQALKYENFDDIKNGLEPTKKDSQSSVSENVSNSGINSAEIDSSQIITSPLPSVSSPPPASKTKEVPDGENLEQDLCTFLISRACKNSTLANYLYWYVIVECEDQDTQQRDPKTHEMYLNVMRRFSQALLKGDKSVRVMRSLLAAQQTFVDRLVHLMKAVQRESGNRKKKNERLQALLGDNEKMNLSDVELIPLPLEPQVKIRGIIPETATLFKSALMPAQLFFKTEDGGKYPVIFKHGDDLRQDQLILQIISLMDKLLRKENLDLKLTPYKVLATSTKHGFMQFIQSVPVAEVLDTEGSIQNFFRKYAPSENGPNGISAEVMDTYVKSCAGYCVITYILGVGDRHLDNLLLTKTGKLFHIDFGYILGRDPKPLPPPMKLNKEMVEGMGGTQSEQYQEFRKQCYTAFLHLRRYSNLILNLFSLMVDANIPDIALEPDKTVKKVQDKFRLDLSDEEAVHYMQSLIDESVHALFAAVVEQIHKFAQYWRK

For the compound `CC1(Nc2nc(Nc3cnn([C@H]4CCN(C5COC5)C[C@@H]4F)c3Cl)nc3[nH]cc(C#N)c23)CC1` [Example 52, 2-((5-chloro-1-((3S,4S)-3-fluoro-1-(oxetane-3-yl)piperidine-4-yl)-1H-pyrazole-4-yl)amino)((1-methylcyclopropyl)amino)-7H-pyrrolo[2,3-d]pyrimidine-5-carbonitrile], the remaining binding at 1 µM in assay [1] worked out at 100%; in assay [2], 91%; in assay [3], 24%; in assay [4] (ABL1(Q252H)-nonphosphorylated), 1.1%; in assay [4] (ABL1(Q252H)-phosphorylated), 0.25%; in assay [5], 8.4%. For the same compound, the remaining binding at 1 µM in assay [6] came to 9.7%; in assay [7], 0%.

Turning to `CCNc1nc(Nc2ccc(C(=O)N3CCC(N4CCOCC4)CC3)cc2OC)nc2[nH]cc(C(F)(F)F)c12` [Example 104, (4-((4-(ethylamino)-5-(trifluoromethyl)-7H-pyrrolo[2,3-d]pyrimidine-2-yl)amino)-3-methoxyphenyl)(4-morpholinopiperidine-1-yl)methanone], the remaining binding at 1 µM in assay [1] turned out to be 78%; in assay [2], 100%; in assay [3] it was 86%; in assay [4] (ABL1(Q252H)-nonphosphorylated), 99%; in assay [4] (ABL1(Q252H)-phosphorylated), 82%; in assay [5], 56%. Further, the results for the remaining binding at 1 µM in assay [6] and in assay [7] were 100% and 98%, respectively.

Turning to `CNc1nc(Nc2ccc(C(=O)N3CCOCC3)cc2OC)nc2[nH]cc(C#N)c12` [Example 1, 2-((2-methoxy-4-(morpholine-4-carbonyl)phenyl)amino)-4-(methylamino)-7H-pyrrolo[2,3-d]pyrimidine-5-carbonitrile], the remaining binding at 1 µM came to 84% in assay [1]; 69% in assay [2]; 100% in assay [3]; 57% in assay [4] (ABL1(Q252H)-nonphosphorylated); 100% in assay [4] (ABL1(Q252H)-phosphorylated); 12% in assay [5]. In addition, the remaining binding at 1 µM came out at 99% in assay [6] and 97% in assay [7].
